Among the data in patent US9682991B2, “Tricyclic compounds for use as kinase inhibitors” (FUNDACIÓN CENTRO NACIONAL DE INVESTIGACIONES ONCOLOGICAS …, priority 2009, dated 2017) are IC50 values, retold here.

Structures are written as SMILES. Where two headings read alike, the source gives them in different places.

One test has as its target PIM-1 (Homo sapiens (Human), UniProt P11309). Description: PIM-1 biochemical assay (ADP Hunter).
The next test concerns the target PIM-2 (Homo sapiens (Human), UniProt Q9P1W9). Description: PIM-2 biochemical assay (ADP Hunter). As to conditions: semi-quantitative; read-out: PIM2 IC50. From the text:
The biochemical assay to measure PIM-2 activity relies on the ADP Hunter assay kit (DiscoveRx Corp., Cat. #90-0077), that determines the amount of ADP as direct product of the kinase enzyme activity.

Where [1] appears, read: read-out: PIM1 IC50, semi-quantitative.

Chain of PIM-2 (Q9P1W9 whole entry): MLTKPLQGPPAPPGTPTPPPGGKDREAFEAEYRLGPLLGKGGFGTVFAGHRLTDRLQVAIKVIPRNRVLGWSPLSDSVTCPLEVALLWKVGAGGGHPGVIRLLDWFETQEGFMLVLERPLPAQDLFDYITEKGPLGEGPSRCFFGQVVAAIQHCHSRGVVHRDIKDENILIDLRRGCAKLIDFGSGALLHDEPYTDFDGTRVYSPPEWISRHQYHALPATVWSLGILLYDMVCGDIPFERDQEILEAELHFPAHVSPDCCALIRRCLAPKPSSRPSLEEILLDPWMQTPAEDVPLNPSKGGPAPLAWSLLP
Chain of PIM-1 (P11309 whole entry): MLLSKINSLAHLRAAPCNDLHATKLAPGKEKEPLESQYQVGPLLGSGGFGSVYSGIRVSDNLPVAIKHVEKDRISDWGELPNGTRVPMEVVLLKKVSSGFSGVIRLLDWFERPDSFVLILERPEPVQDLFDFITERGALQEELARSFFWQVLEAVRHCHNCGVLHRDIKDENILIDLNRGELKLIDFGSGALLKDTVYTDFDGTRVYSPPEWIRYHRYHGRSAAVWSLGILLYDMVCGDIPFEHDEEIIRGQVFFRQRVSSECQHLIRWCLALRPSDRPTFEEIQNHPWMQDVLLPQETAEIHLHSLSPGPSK

A word on the IC50: it is the concentration needed to halve the response being measured. Regarding `CN1CCOc2c(NC3CCNCC3)nn3c(-c4cccc(OC(F)(F)F)c4)nnc3c21` [Example 47, [9-Methyl-3-(3-trifluoromethoxy-phenyl)-8,9-dihydro-7H-6-oxa-1,2,3a,4,9-pentaaza-cyclopenta[a]naphthalen-5-yl]-piperidin-4-yl-amine], the results for the IC50 on PIM-1 and at PIM-2 were 100 to 1000 nM and over 1000 nM, respectively. For `CN1CCOc2c(N3CCC(N)CC3)nn3c(-c4cccc(OC(F)(F)F)c4)nnc3c21` [Example 46, 1-[9-Methyl-3-(3-trifluoromethoxy-phenyl)-8,9-dihydro-7H-6-oxa-1,2,3a,4,9-pentaaza-cyclopenta[a]naphthalen-5-yl]-piperidin-4-ylamine] the same measures were 100 to 1000 nM and over 1000 nM. As for `CCN1CCOc2c(NC3CCOCC3)nn3c(-c4cccc(OC(F)(F)F)c4)nnc3c21` [Example 14, [9-Ethyl-3-(3-trifluoromethoxy-phenyl)-8,9-dihydro-7H-6-oxa-1,2,3a,4,9-pentaaza-cyclopenta[a]naphthalen-5-yl]-(tetrahydro-pyran-4-yl)-amine], the IC50 against PIM-1 was 100 to 1000 nM; on PIM-1 (read-out: PIM1 IC50), 583 nM; at PIM-2, over 1000 nM. As to `COc1ccc(-c2nnc3c4c(c(NCc5ccc(F)cc5)nn23)OCCN4C)cc1` [Example 80, (4-Fluoro-benzyl)-[3-(4-methoxy-phenyl)-9-methyl-8,9-dihydro-7H-6-oxa-1,2,3a,4,9-pentaaza-cyclopenta[a]naphthalen-5-yl]-amine], the IC50 at PIM-1 (setting [1]) and on PIM-2 was over 1000 nM throughout. For the compound `CN1CCOc2c1c(N[C@H]1CC[C@H](N)CC1)nn1c(-c3cccc(OC(F)(F)F)c3)nnc21` [Example 71, N-[6-Methyl-3-(3-trifluoromethoxy-phenyl)-7,8-dihydro-6H-9-oxa-1,2,3a,4,6-pentaaza-cyclopenta[a]naphthalen-5-yl]-cyclohexane-1,4-diamine], on PIM-1 (setting [1]), the IC50 is under 100 nM. With `COc1ccc(CNc2nn3c(-c4cccc(OC(F)(F)F)c4)nnc3c3c2N(C)CCO3)cc1OC` [Example 24, (3,4-Dimethoxy-benzyl)-[6-methyl-3-(3-trifluoromethoxy-phenyl)-7,8-dihydro-6H-9-oxa-1,2,3a,4,6-pentaaza-cyclopenta[a]naphthalen-5-yl]-amine], the IC50 is 100 to 1000 nM against PIM-1 and over 1000 nM at PIM-2. Take `CN1CCC(CNc2nn3c(-c4cccc(OC(F)(F)F)c4)nnc3c3c2OCCO3)CC1` [Example 41, (1-Methyl-piperidin-4-ylmethyl)-[3-(3-trifluoromethoxy-phenyl)-7,8-dihydro-6,9-dioxa-1,2,3a,4-tetraaza-cyclopenta[a]naphthalen-5-yl]-amine]: the values for the IC50 on PIM-1 (setting [1]) and at PIM-2 were under 100 nM and 100 to 1000 nM, respectively.

In the case of `CN1CCOc2c(N(C)C3CCNCC3)nn3c(-c4cccc(OC(F)(F)F)c4)nnc3c21` [Example 45, Methyl-[9-methyl-3-(3-trifluoromethoxy-phenyl)-8,9-dihydro-7H-6-oxa-1,2,3a,4,9-pentaaza-cyclopenta[a]naphthalen-5-yl]-piperidin-4-yl-amine], the IC50 is 100 to 1000 nM on PIM-1 and over 1000 nM on PIM-2.

Turning to `CN1CCOc2c1c(N1CCCC3(CCNCC3)C1)nn1c(-c3cccc(OC(F)(F)F)c3)nnc21` [Example 68, 5-(2,9-Diaza-spiro[S5.5]undec-2-yl)-6-methyl-3-(3-trifluoromethoxy-phenyl)-7,8-dihydro-6H-9-oxa-1,2,3a,4,6-pentaaza-cyclopenta[a]naphthalene], the IC50 on PIM-1 (setting [1]) and at PIM-2 was under 100 nM each time.

Take `CNCC1CCN(c2nn3c(-c4cccc(OC(F)(F)F)c4)nnc3c3c2N(C)CCO3)CC1` [Example 63, Methyl-{1-[6-methyl-3-(3-trifluoromethoxy-phenyl)-7,8-dihydro-6H-9-oxa-1,2,3a,4,6-pentaaza-cyclopenta[a]naphthalen-5-yl]-piperidin-4-ylmethyl}-amine]: the IC50 at PIM-1 (setting [1]) and at PIM-2 was under 100 nM each time. Regarding `CN1CCOc2c1c(NCC1CC[N+](C)([O-])CC1)nn1c(-c3cccc(OC(F)(F)F)c3)nnc21` (stereo not shown) [Example 103, (1-Methyl-1-oxy-pipe-din-4-ylmethyl)-[6-methyl-3-(3-trifluoromethoxy-phenyl)-7,8-dihydro-6H-9-oxa-1,2,3a,4,6-pentaaza-cyclopenta[a]naphthalen-5-yl]-amine], the IC50 is under 100 nM at PIM-1 (setting [1]) and over 1000 nM on PIM-2.

On to `CN1CCOc2c1c(NCC1CCN(C(=O)OC(C)(C)C)CC1)nn1c(-c3cccc(OC(F)(F)F)c3)nnc21` [Example 79, 4-{[6-Methyl-3-(3-trifluoromethoxy-phenyl)-7,8-dihydro-6H-9-oxa-1,2,3a,4,6-pentaaza-cyclopenta[a]naphthalen-5-ylamino]-methyl}-piperidine-1-carboxylic acid tert-butyl ester], for which the IC50 against PIM-1 was 100 to 1000 nM; on PIM-2 it was over 1000 nM. On to `CC1COc2c(c(NCC3CCN(C)CC3)nn3c(-c4cccc(OC(F)(F)F)c4)nnc23)N1C` (stereo not shown) [Example 39, [6,7-Dimethyl-3-(3-trifluoromethoxy-phenyl)-7,8-dihydro-6H-9-oxa-1,2,3a,4,6-pentaaza-cyclopenta[a]naphthalen-5-yl]-(1-methyl-piperidin-4-ylmethyl)-amine], for which the IC50 is under 100 nM at PIM-1 (setting [1]) and 100 to 1000 nM on PIM-2. Take `CN1CCOc2c(NCC3CC3)nn3c(-c4cccc(OC(F)(F)F)c4)nnc3c21` [Example 8, Cyclopropylmethyl-[9-methyl-3-(3-trifluoromethoxy-phenyl)-8,9-dihydro-7H-6-oxa-1,2,3a,4,9-pentaaza-cyclopenta[a]naphthalen-5-yl]-amine]: the IC50 against PIM-1 was 100 to 1000 nM; at PIM-2, over 1000 nM. For `COc1ccc(-c2nnc3c4c(c(NCC5CCN(C)CC5)nn23)N(C)CCO4)cc1` [Example 1, [3-(4-Methoxy-phenyl)-6-methyl-7,8-dihydro-6H-9-oxa-1,2,3a,4,6-pentaaza-cyclopenta[a]naphthalen-5-yl]-(1-methyl-piperidin-4-ylmethyl)-amine] the same measures were 100 to 1000 nM and over 1000 nM. Take `COc1ccc(-c2nnc3c4c(c(NCc5ccc(F)cc5)nn23)N(C)CCN4C)cc1` [Example 15, (4-Fluoro-benzyl)-[3-(4-methoxy-phenyl)-6,9-dimethyl-6,7,8,9-tetrahydro-1,2,3a,4,6,9-hexaaza-cyclopenta[a]naphthalen-5-yl]-amine]: the IC50 against PIM-1 was over 1000 nM; at PIM-1 (read-out: PIM1 IC50) it was 4350 nM; on PIM-2, over 1000 nM. Regarding `CC1COc2c(NCC3CCN(C)CC3)nn3c(-c4cccc(OC(F)(F)F)c4)nnc3c2N1C` (stereo not shown) [Example 38, [8,9-Dimethyl-3-(3-trifluoromethoxy-phenyl)-8,9-dihydro-7H-6-oxa-1,2,3a,4,9-pentaaza-cyclopenta[a]naphthalen-5-yl]-(1-methyl-piperidin-4-ylmethyl)-amine], the IC50 at PIM-1 was 100 to 1000 nM. Consider `CN1CCOc2c1c(N1CCCC3(CCCN3C)CC1)nn1c(-c3cccc(OC(F)(F)F)c3)nnc21` (stereo not shown) [Example 61, 6-Methyl-5-(1-methyl-1,8-diaza-spiro[4.6]undec-8-yl)-3-(3-trifluoromethoxy-phenyl)-7,8-dihydro-6H-9-oxa-1,2,3a,4,6-pentaaza-cyclopenta[a]naphthalene], for which the IC50 on PIM-1 (setting [1]) is under 100 nM; on PIM-2, 100 to 1000 nM. Take `CC(C)NC1CC2(CCN(c3nn4c(-c5cccc(OC(F)(F)F)c5)nnc4c4c3N(C)CCO4)CC2)C1` [Example 87, Isopropyl-{7-[6-methyl-3-(3-trifluoromethoxy-phenyl)-7,8-dihydro-6H-9-oxa-1,2,3a,4,6-pentaaza-cyclopenta[a]naphthalen-5-yl]-7-aza-spiro[3.5]non-2-yl}-amine]: on PIM-1 (setting [1]), the IC50 was under 100 nM.

With `CN1CCOc2c1c(N1CCC3(CCCNC3)CC1)nn1c(-c3cccc(OC(F)(F)F)c3)nnc21` [Example 67, 5-(2,9-Diaza-spiro[5.5]undec-9-yl)-6-methyl-3-(3-trifluoromethoxy-phenyl)-7,8-dihydro-6H-9-oxa-1,2,3a,4,6-pentaaza-cyclopenta[a]naphthalene], the IC50 at PIM-1 (setting [1]) is under 100 nM. On the same count and under the same terms, under `CC1COc2c(c(N3CCC4(CC3)CC(N)C4)nn3c(-c4cccc(OC(F)(F)F)c4)nnc23)N1C` (stereo not shown) [Example 50, 7-[6,7-Dimethyl-3-(3-trifluoromethoxy-phenyl)-7,8-dihydro-6H-9-oxa-1,2,3a,4,6-pentaaza-cyclopenta[a]naphthalen-5-yl]-7-aza-spiro[3.5]non-2-ylamine] stands under 100 nM; under `CN(CC1CCNCC1)c1nn2c(-c3cccc(OC(F)(F)F)c3)nnc2c2c1N(C)CCO2` [Example 64, Methyl-[6-methyl-3-(3-trifluoromethoxy-phenyl)-7,8-dihydro-6H-9-oxa-1,2,3a,4,6-pentaaza-cyclopenta[a]naphthalen-5-yl]-piperidin-4-ylmethyl-amine], under 100 nM.

`CN1CCOc2c1c(N[C@H]1CC[C@H](O)CC1)nn1c(-c3cccc(OC(F)(F)F)c3)nnc21` [Example 19, 4-[6-Methyl-3-(3-trifluoromethoxy-phenyl)-7,8-dihydro-6H-9-oxa-1,2,3a,4,6-pentaaza-cyclopenta[a]naphthalen-5-ylamino]-cyclohexanol]: the IC50 at PIM-1 (setting [1]) is under 100 nM. On the same count and under the same terms, in the case of `CN1CCOc2c1c(N[C@H]1CC[C@@H](N)CC1)nn1c(-c3cccc(OC(F)(F)F)c3)nnc21` [Example 70, N-[6-Methyl-3-(3-trifluoromethoxy-phenyl)-7,8-dihydro-6H-9-oxa-1,2,3a,4,6-pentaaza-cyclopenta[a]naphthalen-5-yl]-cyclohexane-1,4-diamine] it was under 100 nM. In turn, `CN1CCOc2c(NCCN3CCNCC3)nn3c(-c4cccc(OC(F)(F)F)c4)nnc3c21` [Example 42, [9-Methyl-3-(3-trifluoromethoxy-phenyl)-8,9-dihydro-7H-6-oxa-1,2,3a,4,9-pentaaza-cyclopenta[a]naphthalen-5-yl]-(2-piperazin-1-yl-ethyl)-amine] yielded an IC50 against PIM-1 of 100 to 1000 nM.
